{"source": "patent US8192962B2", "about": "“Processes for detecting toxic substances” (Daikin Industries, Ltd., priority 2001, dated 2012)", "tested_on": "Unknown protein yeast genes", "assay": "DNA chip mRNA expression in yeast, unknown protein yeast genes (Table 1)", "assay_type": "cell-based, Saccharomyces cerevisiae S288C", "how_it_was_run": "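Expression change after 2 h toxicant exposure (growth-inhibiting, sub-lethal) of log-phase S. cerevisiae S288C at 25° C. Oligo-dT-purified mRNA was labeled with Cy3-dUTP or Cy5-dUTP and hybridized >12 h at 65° C. to a genome-wide chip; ratio of scanned fluorescence to control.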"}
{"smiles": "CCCCC[C@H](O)CC(=O)CCc1ccc(O)c(OC)c1", "note": "[(13), gingerol]", "values": [{"measurement": "The level of expressed mRNA in the presence of chemical substance/The level of expressed mRNA in the absence of chemical substance", "setting": "yeast gene YLR415C", "result": 1.0}, {"measurement": "The level of expressed mRNA in the presence of chemical substance/The level of expressed mRNA in the absence of chemical substance", "setting": "yeast gene YLR421C, incubated two hours with substance", "result": 1.6}, {"measurement": "The level of expressed mRNA in the presence of chemical substance/The level of expressed mRNA in the absence of chemical substance", "setting": "yeast gene YLR427W", "result": 2.5}, {"measurement": "The level of expressed mRNA in the presence of chemical substance/The level of expressed mRNA in the absence of chemical substance", "setting": "yeast gene YLR460C", "result": 0.7}, {"measurement": "The level of expressed mRNA in the presence of chemical substance/The level of expressed mRNA in the absence of chemical substance", "setting": "yeast gene YML013W", "result": 1.2}, {"measurement": "The level of expressed mRNA in the presence of chemical substance/The level of expressed mRNA in the absence of chemical substance", "setting": "yeast gene YML029W", "result": 2.0}, {"measurement": "The level of expressed mRNA in the presence of chemical substance/The level of expressed mRNA in the absence of chemical substance", "setting": "yeast gene YML041C", "result": 1.2}, {"measurement": "The level of expressed mRNA in the presence of chemical substance/The level of expressed mRNA in the absence of chemical substance", "setting": "yeast gene YML079W", "result": 1.6}, {"measurement": "The level of expressed mRNA in the presence of chemical substance/The level of expressed mRNA in the absence of chemical substance", "setting": "yeast gene YMR068W", "result": 1.4}, {"measurement": "The level of expressed mRNA in the presence of chemical substance/The level of expressed mRNA in the absence of chemical substance", "setting": "yeast gene YMR071C", "result": 1.3}, {"measurement": "The level of expressed mRNA in the presence of chemical substance/The level of expressed mRNA in the absence of chemical substance", "setting": "yeast gene YMR102C, incubated two hours with chemical substance", "result": 4.4}, {"measurement": "The level of expressed mRNA in the presence of chemical substance/The level of expressed mRNA in the absence of chemical substance", "setting": "yeast gene YMR160W", "result": 1.6}, {"measurement": "The level of expressed mRNA in the presence of chemical substance/The level of expressed mRNA in the absence of chemical substance", "setting": "yeast gene YMR258C, incubated two hours with substance", "result": 1.6}, {"measurement": "The level of expressed mRNA in the presence of chemical substance/The level of expressed mRNA in the absence of chemical substance", "setting": "yeast gene YMR315W", "result": 2.5}, {"measurement": "The level of expressed mRNA in the presence of chemical substance/The level of expressed mRNA in the absence of chemical substance", "setting": "yeast gene YNL026W", "result": 1.7}, {"measurement": "The level of expressed mRNA in the presence of chemical substance/The level of expressed mRNA in the absence of chemical substance", "setting": "yeast gene YNL058C", "result": 0.6}, {"measurement": "The level of expressed mRNA in the presence of chemical substance/The level of expressed mRNA in the absence of chemical substance", "setting": "yeast gene YNL063W", "result": 1.5}, {"measurement": "The level of expressed mRNA in the presence of chemical substance/The level of expressed mRNA in the absence of chemical substance", "setting": "yeast gene YNL176C", "result": 0.6}, {"measurement": "The level of expressed mRNA in the presence of chemical substance/The level of expressed mRNA in the absence of chemical substance", "setting": "yeast gene YNL194C", "result": 1.5}, {"measurement": "The level of expressed mRNA in the presence of chemical substance/The level of expressed mRNA in the absence of chemical substance", "setting": "yeast gene YNL200C", "result": 1.1}, {"measurement": "The level of expressed mRNA in the presence of chemical substance/The level of expressed mRNA in the absence of chemical substance", "setting": "yeast gene YNL253W", "result": 1.1}, {"measurement": "The level of expressed mRNA in the presence of chemical substance/The level of expressed mRNA in the absence of chemical substance", "setting": "yeast gene YNL276C", "result": 1.5}, {"measurement": "The level of expressed mRNA in the presence of chemical substance/The level of expressed mRNA in the absence of chemical substance", "setting": "yeast gene YNL300W, incubated two hours with chemical substance", "result": 0.7}, {"measurement": "The level of expressed mRNA in the presence of chemical substance/The level of expressed mRNA in the absence of chemical substance", "setting": "yeast gene YNR051C", "result": 2.1}, {"measurement": "The level of expressed mRNA in the presence of chemical substance/The level of expressed mRNA in the absence of chemical substance", "setting": "yeast gene YOL026C", "result": 1.2}, {"measurement": "The level of expressed mRNA in the presence of chemical substance/The level of expressed mRNA in the absence of chemical substance", "setting": "yeast gene YOL031C", "result": 2.4}, {"measurement": "The level of expressed mRNA in the presence of chemical substance/The level of expressed mRNA in the absence of chemical substance", "setting": "yeast gene YOL084W, incubated two hours with substance", "result": 6.4}, {"measurement": "The level of expressed mRNA in the presence of chemical substance/The level of expressed mRNA in the absence of chemical substance", "setting": "yeast gene YOL101C", "result": 0.2}, {"measurement": "The level of expressed mRNA in the presence of chemical substance/The level of expressed mRNA in the absence of chemical substance", "setting": "yeast gene YOR022C", "result": 1.7}, {"measurement": "The level of expressed mRNA in the presence of chemical substance/The level of expressed mRNA in the absence of chemical substance", "setting": "yeast gene YOR087W", "result": 1.2}, {"measurement": "The level of expressed mRNA in the presence of chemical substance/The level of expressed mRNA in the absence of chemical substance", "setting": "yeast gene YOR138C", "result": 1.8}, {"measurement": "The level of expressed mRNA in the presence of chemical substance/The level of expressed mRNA in the absence of chemical substance", "setting": "yeast gene YOR253W", "result": 0.5}, {"measurement": "The level of expressed mRNA in the presence of chemical substance/The level of expressed mRNA in the absence of chemical substance", "setting": "yeast gene YOR267C", "result": 1.4}, {"measurement": "The level of expressed mRNA in the presence of chemical substance/The level of expressed mRNA in the absence of chemical substance", "setting": "yeast gene YOR338W", "result": 1.4}, {"measurement": "The level of expressed mRNA in the presence of chemical substance/The level of expressed mRNA in the absence of chemical substance", "setting": "yeast gene YOR391C", "result": 2.3}, {"measurement": "The level of expressed mRNA in the presence of chemical substance/The level of expressed mRNA in the absence of chemical substance", "setting": "yeast gene YPL005W", "result": 1.2}, {"measurement": "The level of expressed mRNA in the presence of chemical substance/The level of expressed mRNA in the absence of chemical substance", "setting": "yeast gene YPL087W, incubated two hours with chemical substance", "result": 4.4}, {"measurement": "The level of expressed mRNA in the presence of chemical substance/The level of expressed mRNA in the absence of chemical substance", "setting": "yeast gene YPL150W", "result": 2.1}, {"measurement": "The level of expressed mRNA in the presence of chemical substance/The level of expressed mRNA in the absence of chemical substance", "setting": "yeast gene YPL152W", "result": 1.4}, {"measurement": "The level of expressed mRNA in the presence of chemical substance/The level of expressed mRNA in the absence of chemical substance", "setting": "yeast gene YPL168W", "result": 1.0}, {"measurement": "The level of expressed mRNA in the presence of chemical substance/The level of expressed mRNA in the absence of chemical substance", "setting": "yeast gene YPL180W", "result": 1.5}, {"measurement": "The level of expressed mRNA in the presence of chemical substance/The level of expressed mRNA in the absence of chemical substance", "setting": "yeast gene YPL188W", "result": 0.9}, {"measurement": "The level of expressed mRNA in the presence of chemical substance/The level of expressed mRNA in the absence of chemical substance", "setting": "yeast gene YPL221W", "result": 1.0}, {"measurement": "The level of expressed mRNA in the presence of chemical substance/The level of expressed mRNA in the absence of chemical substance", "setting": "yeast gene YPL225W", "result": 0.8}, {"measurement": "The level of expressed mRNA in the presence of chemical substance/The level of expressed mRNA in the absence of chemical substance", "setting": "yeast gene YPL280W", "result": 2.4}, {"measurement": "The level of expressed mRNA in the presence of chemical substance/The level of expressed mRNA in the absence of chemical substance", "setting": "yeast gene YPR049C", "result": 1.6}, {"measurement": "The level of expressed mRNA in the presence of chemical substance/The level of expressed mRNA in the absence of chemical substance", "setting": "yeast gene YPR146C", "result": 1.3}, {"measurement": "The level of expressed mRNA in the presence of chemical substance/The level of expressed mRNA in the absence of chemical substance", "setting": "yeast gene YPR148C", "result": 1.2}, {"measurement": "The level of expressed mRNA in the presence of chemical substance/The level of expressed mRNA in the absence of chemical substance", "setting": "yeast gene YPR158W, incubated two hours with substance", "result": 1.6}, {"measurement": "The level of expressed mRNA in the presence of chemical substance/The level of expressed mRNA in the absence of chemical substance", "setting": "yeast gene YPR172W", "result": 1.3}]}
